The values that follow come from publication PMC6272301, “Inhibition of Oxidative Stress and Skin Aging-Related Enzymes by Prenylated Chalcones and Other Flavonoids from Helichrysum teretifolium” (Molecules, 2015).

Values joined by “and” are separate entries in the source; they are usually repeats but may differ in a detail not shown here. Equal entries are not always repeated.

Test [1] is described as follows: Automated ORAC assay, peroxyl radical (AAPH; ORAC ROO.). To be noted: peroxyl radical from AAPH, 37 °C; Trolox equivalents. Here is the method:
(§1) 3.4.2. Automated Oxygen Radicals Absorbance Capacity (ORAC) Assay
(§2) ORAC was measured according to the method described by Prior [30], with some modifications. […] The copper-initiated prooxidant activity was calculated using [(AreaBlank − AreaSample)/AreaBlank] × 100 and expressed as prooxidant units; one unit equals the prooxidant activity that reduces the area under the fluorescein decay curve by 1% in the ORAC assay.

Test [2] can be described thus: Automated ORAC assay, hydroxyl radical (H2O2-Cu2+; ORAC OH.). To be noted: hydroxyl radical from H2O2 0.3% - Cu2+ 18 µM, 37 °C; Trolox equivalents. Here is the method: as §1, §2
A short description of test [3]: Copper-initiated prooxidant activity in the ORAC assay (Cu2+ without H2O2). To be noted: Cu2+ (CuSO4) 18 µM without H2O2, 37 °C; prooxidant (arbitrary) units. Here is the method:
as §1, §2

Test [4] deals with Fe (II)-induced microsomal lipid peroxidation (rat liver microsomes). The experiment in a line: Inhibition of Fe (II)-induced microsomal lipid peroxidation. It counts as biochemical. To be noted: TBARS, purified compounds screened at 26.750 μg/mL, extract (HT) at 100 μg/mL. The source says:
3.4.4. Inhibition of Fe (II)-Induced Microsomal Lipid Peroxidation Assay
A modified assay described by Snijman et al. with little modifications.

The target in test [5] is T1, elastase (from porcine pancreas) (Sus scrofa, UniProt P00772).
T1 construct: purchased Sigma-Aldrich, Inc. (St. Louis, MO, USA); host or cells: porcine pancreas
The experiment in a line: Elastase inhibition assay. It counts as biochemical. To be noted: substrate SANA, 100 μg/mL optimum concentration; for IC50: read-out: Inhibitory Activitis (IC50) Elastase (converted). How it is done:
(§3) Organic solvents, methanol, acetonitrile (HPLC grade), ethanol, ethyl acetate, dichloromethane and hexane were supplied by Merck (Cape Town, South Africa). TLC was conducted on normal-phase (Merck) Silica gel 60 PF254 pre-coated aluminum plates. Column chromatography was performed using silica gel 60 H (0.040–0.063 mm particle size, Merck) and Sephadex LH-20 (Sigma-Aldrich, Cape Town, South Africa). NMR spectra were recorded on an Avance 400 MHz NMR spectrometer (Bruker, Rheinstetten, Germany) in deuterated chloroform and acetone, using the solvent signals as internal reference. HRMS analysis was conducted on an Ultimate 3000 LC (Dionex Sunnyvale, CA, USA) coupled to a Bruker QTOF with electrospray ionization (ESI) interface working in the positive ion mode.
3.4.6. Elastase Inhibition Assay
Inhibition of elastase by the test samples was assayed using N-succyl-(Ala)3-nitroanilide (SANA) as the substrate, monitoring the release of p-nitroanilide by the method described by Chompo et al. with little adjustment. The inhibitory activity determined the intensity of colour released during cleavage of SANA by the action of elastase. Briefly, 1 mM SANA was prepared in 0.1 M Tris-HCl buffer pH 8.0 and 200 µL of this solution was added to the 20 µL of sample solution in a 96-Well plate. The mixtures were vortexed and preincubated for 10 min at 25 °C and then 20 µL of elastase from porcine pancrease (0.03 units/mL) was added. The mixtures were further incubated for 10 min and the absorbance was measured at 410 nm. Methanol was used as control, while oleanolic acid used as a positive control.

Test [6] is described as follows: Ferric-ion reducing antioxidant power assay (FRAP). To be noted: ascorbic acid equivalents; absorbance 593 nm. How it is done:
3.4.1. Ferric-Ion Reducing Antioxidant Power Assay (FRAP)
Working FRAP reagent was prepared in accordance to the methods described previously. […] L-Ascorbic acid was used as a standard and the results were expressed as μM ascorbic acid equivalents per […] dry weight (μM AAE/g DW) of the test samples.

Test [7] is described as follows: Trolox equivalent absorbance capacity (TEAC) assay. The note with it: Trolox equivalents; absorbance 734 nm, 25 °C. Here is the method: 3.4.3. Trolox Equivalent Absorbance Capacity (TEAC) Assay
The total antioxidant activity of test samples were measured using previously described methods.

Test [8] addresses tyrosinase (from mushroom) (Agaricus bisporus, UniProt C7FF04). The experiment in a line: Tyrosinase enzyme assay. Type of test: biochemical. The note with it: substrate L-Tyrosine; screened at effective concentration of 50 μg/mL. How it is done: as §3
Samples were dissolved in DMSO to a stock solution of 1 mg/mL, and further dilutions were then done with 50 mM sodium phosphate buffer (pH 6.5) for all working solutions. […] Incubation commenced for 30 min at room temperature and the enzyme activity was determined by measuring the absorbance at 490 nm.

T1 sequence (P00772 27-266): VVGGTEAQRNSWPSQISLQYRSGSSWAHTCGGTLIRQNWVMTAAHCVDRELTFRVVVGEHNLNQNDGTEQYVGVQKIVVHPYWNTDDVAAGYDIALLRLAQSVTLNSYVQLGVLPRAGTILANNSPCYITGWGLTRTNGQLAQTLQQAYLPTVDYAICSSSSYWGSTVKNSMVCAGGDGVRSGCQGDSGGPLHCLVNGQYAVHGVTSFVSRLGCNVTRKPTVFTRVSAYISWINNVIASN
tyrosinase (from mushroom), sequence (C7FF04 1-392): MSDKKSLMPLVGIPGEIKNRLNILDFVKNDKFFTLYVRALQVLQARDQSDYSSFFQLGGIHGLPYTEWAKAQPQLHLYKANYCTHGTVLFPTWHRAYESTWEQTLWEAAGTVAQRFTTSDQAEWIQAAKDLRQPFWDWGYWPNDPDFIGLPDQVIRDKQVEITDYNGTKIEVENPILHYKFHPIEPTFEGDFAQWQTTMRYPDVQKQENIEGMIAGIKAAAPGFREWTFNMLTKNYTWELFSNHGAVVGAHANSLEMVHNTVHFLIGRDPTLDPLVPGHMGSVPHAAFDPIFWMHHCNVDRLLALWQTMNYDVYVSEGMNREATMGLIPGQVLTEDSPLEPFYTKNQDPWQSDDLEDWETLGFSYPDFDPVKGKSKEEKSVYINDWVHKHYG

Turning to `CC(C)=CCOc1cc(O)c(C(=O)/C=C/c2ccccc2)c2c1C=CC(C)(C)O2` [Compound 1, 2'-hydroxy-5',6'-(2,2-dimethylpyrano)-4'-(O-prenyl)-chalcone], the “Automated Oxygen Radical Absorbance Capacity (ORAC μM TE/g) ROO.” value in test [1] worked out at 2.833 ± 3.88 μM/g × 10^3. In test [2], the “Automated Oxygen Radical Absorbance Capacity (ORAC μM TE/g) OH.” value is on record as 2.998 ± 1.67 μM/g × 10^6. Besides, the “Automated Oxygen Radical Absorbance Capacity (ORAC μM TE/g) Prooxidant” value in test [3] was 2.036 ± 2.98 µM/g. Besides, the “Inhibitory Activitis (IC50) Lipid Peroxidation” value in test [4] was over 26.750 µg/mL. Moreover, in test [5], the IC50 was over 256 µM.
Regarding `CC(C)=CCc1c(O)cc(O)c(C(=O)/C=C/c2ccccc2)c1O` [Compound 3, 2',4',6'-trihydroxy-3'-prenylchalcone], in test [1], the “Automated Oxygen Radical Absorbance Capacity (ORAC μM TE/g) ROO.” value is given as 5.025 ± 6.16 μM/g × 10^3. In addition, the “Automated Oxygen Radical Absorbance Capacity (ORAC μM TE/g) OH.” value in test [2] came to 3.771 ± 3.02 μM/g × 10^6. Also, the “Automated Oxygen Radical Absorbance Capacity (ORAC μM TE/g) Prooxidant” value in test [3] came to 4.704 ± 0.27 µM/g. For the same compound, the FRAP in test [6] was determined as 817.94 ± 4.26 μM AAE/g. For the same compound, in test [7], the TEAC is on record as 4529.01 ± 2.44 μM TE/g. Also, in test [4], the “Inhibitory Activitis (IC50) Lipid Peroxidation” value came to 21.276 µg/mL. Besides, in test [5], the IC50 is over 308 µM.
For `CC(C)=CCc1c(O)cc2c(c1O)C(=O)C[C@@H](c1ccccc1)O2` [Compound 4, isoglabranin], the “Automated Oxygen Radical Absorbance Capacity (ORAC μM TE/g) ROO.” value in test [1] is 1.063 ± 33.50 μM/g × 10^3. Besides, in test [2], the “Automated Oxygen Radical Absorbance Capacity (ORAC μM TE/g) OH.” value is recorded as 2.918 ± 4.13 μM/g × 10^6. Also, the “Automated Oxygen Radical Absorbance Capacity (ORAC μM TE/g) Prooxidant” value in test [3] was 3.947 ± 0.29 µM/g. In test [6], the FRAP is on record as 7.052 ± 3.76 μM AAE/g. In test [7], the TEAC was 43.17 ± 6.26 μM TE/g. Further, the “Inhibitory Activitis (IC50) Lipid Peroxidation” value in test [4] was over 26.750 µg/mL. Further, the IC50 in test [5] was over 308 µM.
As for `CC(C)=CCc1c(O)cc(O)c2c1O[C@H](c1ccccc1)CC2=O` [Compound 5, glabranin], in test [1], the “Automated Oxygen Radical Absorbance Capacity (ORAC μM TE/g) ROO.” value amounted to 0.856 ± 17.35 μM/g × 10^3. Further, the “Automated Oxygen Radical Absorbance Capacity (ORAC μM TE/g) OH.” value in test [2] is recorded as 2.997 ± 0.36 μM/g × 10^6. Also, the “Automated Oxygen Radical Absorbance Capacity (ORAC μM TE/g) Prooxidant” value in test [3] was 2.971 ± 1.10 µM/g. For the same compound, the FRAP in test [6] is on record as 67.79 ± 14.27 μM AAE/g. For the same compound, the TEAC in test [7] was 204.15 ± 2.04 μM TE/g. The “Inhibitory Activitis (IC50) Lipid Peroxidation” value in test [4] is over 26.750 µg/mL. Further, the half-inhibitory concentration (IC50) in test [5] is over 308 µM.
For `O=c1c(O)c(-c2ccc(O)c(O)c2)oc2cc(O)cc(O)c12` [Compound 7, quercetin], the “Automated Oxygen Radical Absorbance Capacity (ORAC μM TE/g) ROO.” value in test [1] was 17.836 ± 2.90 μM/g × 10^3. For the same compound, the “Automated Oxygen Radical Absorbance Capacity (ORAC μM TE/g) OH.” value in test [2] worked out at 7.265 ± 0.71 μM/g × 10^6. Moreover, the “Automated Oxygen Radical Absorbance Capacity (ORAC μM TE/g) Prooxidant” value in test [3] worked out at 4.361 ± 0.78 µM/g. Besides, the FRAP in test [6] was 4816 ± 7.42 μM AAE/g and 4816.31 ± 7.42 μM AAE/g. Also, the TEAC in test [7] is on record as 1361.70 ± 1.98 μM TE/g. Further, the “Inhibitory Activitis (IC50) Lipid Peroxidation” value in test [4] worked out at 2.931 µg/mL.
Consider `COc1ccc(-c2oc3cc(O)cc(O)c3c(=O)c2O)cc1O` [Compound 8, 4'-methoxyquercetin], for which, in test [1], the “Automated Oxygen Radical Absorbance Capacity (ORAC μM TE/g) ROO.” value amounted to 12.545 ± 5.07 μM/g × 10^3. The “Automated Oxygen Radical Absorbance Capacity (ORAC μM TE/g) OH.” value in test [2] came out at 6.779 ± 3.40 μM/g × 10^6. Further, the “Automated Oxygen Radical Absorbance Capacity (ORAC μM TE/g) Prooxidant” value in test [3] came to 8.963 ± 2.79 µM/g. Further, in test [6], the FRAP came to 3584.17 ± 0.54 μM AAE/g. Also, the TEAC in test [7] is 1009.01 ± 1.98 μM TE/g. The “Inhibitory Activitis (IC50) Lipid Peroxidation” value in test [4] is 6.449 µg/mL. The IC50 in test [5] was 274 µM.
In the case of `COc1ccc(-c2oc3cc(O)cc(O)c3c(=O)c2O)cc1` [Compound 9, 4'-methoxykaempferol], the “Automated Oxygen Radical Absorbance Capacity (ORAC μM TE/g) ROO.” value in test [1] is 10.491 ± 0.97 μM/g × 10^3. Also, the “Automated Oxygen Radical Absorbance Capacity (ORAC μM TE/g) OH.” value in test [2] amounted to 3.675 ± 1.40 μM/g × 10^6. Moreover, the “Automated Oxygen Radical Absorbance Capacity (ORAC μM TE/g) Prooxidant” value in test [3] was determined as 3.790 ± 1.15 µM/g. Besides, the FRAP in test [6] is 191.47 ± 1.39 μM AAE/g. In test [7], the TEAC amounted to 261.30 ± 4.02 μM TE/g. Besides, the “Inhibitory Activitis (IC50) Lipid Peroxidation” value in test [4] was 10.520 µg/mL. For the same compound, the IC50 in test [5] is over 333 µM.
For the compound `COc1cc2oc(-c3ccccc3)cc(=O)c2c(O)c1OC` [Compound 10, mosloflavone], the “Automated Oxygen Radical Absorbance Capacity (ORAC μM TE/g) ROO.” value in test [1] was found to be 2.403 ± 2.50 μM/g × 10^3. Further, the “Automated Oxygen Radical Absorbance Capacity (ORAC μM TE/g) OH.” value in test [2] is given as 2.909 ± 8.41 μM/g × 10^6. Also, the “Automated Oxygen Radical Absorbance Capacity (ORAC μM TE/g) Prooxidant” value in test [3] was found to be 6.482 ± 1.55 µM/g. The FRAP in test [6] amounted to 544.60 ± 6.98 μM AAE/g. In test [7], the TEAC stood at 699.66 ± 2.28 μM TE/g. For the same compound, the “Inhibitory Activitis (IC50) Lipid Peroxidation” value in test [4] turned out to be 10.720 µg/mL. In addition, the IC50 in test [5] was over 335 µM.
Consider `O=C(O[C@@H]1Cc2c(O)cc(O)cc2O[C@@H]1c1cc(O)c(O)c(O)c1)c1cc(O)c(O)c(O)c1` [EGCG, epigallocatechin gallate, reference compound], for which the “Automated Oxygen Radical Absorbance Capacity (ORAC μM TE/g) ROO.” value in test [1] is 14.970 ± 5.53 μM/g × 10^3. Further, in test [2], the “Automated Oxygen Radical Absorbance Capacity (ORAC μM TE/g) OH.” value was found to be 3.911 ± 4.65 μM/g × 10^6. In addition, in test [3], the “Automated Oxygen Radical Absorbance Capacity (ORAC μM TE/g) Prooxidant” value was found to be 6.483 ± 1.19 µM/g. Further, in test [6], the FRAP is 3326.45 ± 5.76 μM AAE/g. In test [7], the TEAC is 11545.4 ± 17.28 μM TE/g. For the same compound, the “Inhibitory Activitis (IC50) Lipid Peroxidation” value in test [4] was 0.929 µg/mL.
Turning to isoxanthohumol [Compound 2], in test [1], the “Automated Oxygen Radical Absorbance Capacity (ORAC μM TE/g) ROO.” value is recorded as 3.113 ± 17.59 μM/g × 10^3. In test [2], the “Automated Oxygen Radical Absorbance Capacity (ORAC μM TE/g) OH.” value is reported as 2.910 ± 6.00 μM/g × 10^6. Further, in test [3], the “Automated Oxygen Radical Absorbance Capacity (ORAC μM TE/g) Prooxidant” value stood at 3.601 ± 2.23 µM/g. In test [6], the FRAP is 619.91 ± 1.97 μM AAE/g. For the same compound, in test [7], the TEAC is 4170.66 ± 6.72 μM TE/g. For the same compound, the “Inhibitory Activitis (IC50) Lipid Peroxidation” value in test [4] was over 26.750 µg/mL. Moreover, in test [8], the “Inhibitory Activitis (IC50) Tyrosinase” value was over 50 µg/mL. In test [5], the “Inhibitory Activitis (IC50) Elastase” value is over 100 µg/mL.
